Data from patent US8193173B2, “Liver function ameliorant” (Tokyo University of Agriculture and Technology TLO Co., Ltd., priority 2006, dated 2012).

How the values were obtained:
[1] = tested on: chronic hepatitis model mice; test: Liver function ameliorative effects in chronic hepatitis model mice (carbon tetrachloride); plasma AST, ALT, ChE; assay type: in vivo, ICR mice
Experimental: Production of chronic hepatitis model mice was carried out according to a modified version of the method of Vogten et al. (J. Mathys Vogten et al., Int. J. Colorectal Dis. (2004), 19: 387-394).
ICR mice weighing about 30 g (age: 6 weeks, males, supplier: Sankyo Labo Service) were used in the experiment after preliminarily housing for 5 days while allowing free access to solid feed (Labo MR Stock) and distilled water. The animals were housed in an animal room set to conditions consisting of a temperature of 22±2° C., humidity of 60±5% and light-dark cycle of 12 hours.
Following preliminary housing, the animals were intraperitoneally administered carbon tetrachloride (10% corn oil solution (v/v)) three times a week. The initially dose was 330 μl/kg, the second dose was […], and all subsequent doses were 500 μl/kg. This administration was carried out over the course of six weeks to produce chronic hepatitis model mice.
After administering carbon tetrachloride for 6 weeks, the animals were divided into an orniplabin dose group and control group so as to be statistically equivalent (orniplabin dose group: 7 animals, control group: 6 animals). Orniplabin was continuously administered into the abdominal cavity at 10 mg/kg. The control group was continuously administered physiological saline into the abdominal cavity at 2 ml/kg. This procedure was carried out for 14 days.
Following completion of administration, blood samples were collected from the vena cava into a syringe barrel containing anticoagulant in the form of 3.8% sodium citrate solution ( 1/10 volume of collected blood), and the resulting blood was centrifuged immediately for 20 minutes at 3000 rpm to collect the supernatant for use as blood samples.
The levels of AST ([…], GOT), ALT (alanine aminotransferase, GPT) and ChE (cholinesterase) were measured for the resulting blood samples (Hitachi Model 7180 Autoanalyzer).

plasminogen [2] = target: T1, plasminogen (Homo sapiens, UniProt P00747); conditions: JP 2004-224737; cited from earlier work
plasminogen [3] = target: T1, plasminogen; conditions: cited from earlier work
[4] = tested on: pulmonary embolism model rats; conditions: pulmonary embolism model rats in vivo; cited from earlier work
[5] = 10 mg/kg into the abdominal cavity for 14 days, versus normal level

T1 sequence (P00747 20-810 limits assumed, species assumed): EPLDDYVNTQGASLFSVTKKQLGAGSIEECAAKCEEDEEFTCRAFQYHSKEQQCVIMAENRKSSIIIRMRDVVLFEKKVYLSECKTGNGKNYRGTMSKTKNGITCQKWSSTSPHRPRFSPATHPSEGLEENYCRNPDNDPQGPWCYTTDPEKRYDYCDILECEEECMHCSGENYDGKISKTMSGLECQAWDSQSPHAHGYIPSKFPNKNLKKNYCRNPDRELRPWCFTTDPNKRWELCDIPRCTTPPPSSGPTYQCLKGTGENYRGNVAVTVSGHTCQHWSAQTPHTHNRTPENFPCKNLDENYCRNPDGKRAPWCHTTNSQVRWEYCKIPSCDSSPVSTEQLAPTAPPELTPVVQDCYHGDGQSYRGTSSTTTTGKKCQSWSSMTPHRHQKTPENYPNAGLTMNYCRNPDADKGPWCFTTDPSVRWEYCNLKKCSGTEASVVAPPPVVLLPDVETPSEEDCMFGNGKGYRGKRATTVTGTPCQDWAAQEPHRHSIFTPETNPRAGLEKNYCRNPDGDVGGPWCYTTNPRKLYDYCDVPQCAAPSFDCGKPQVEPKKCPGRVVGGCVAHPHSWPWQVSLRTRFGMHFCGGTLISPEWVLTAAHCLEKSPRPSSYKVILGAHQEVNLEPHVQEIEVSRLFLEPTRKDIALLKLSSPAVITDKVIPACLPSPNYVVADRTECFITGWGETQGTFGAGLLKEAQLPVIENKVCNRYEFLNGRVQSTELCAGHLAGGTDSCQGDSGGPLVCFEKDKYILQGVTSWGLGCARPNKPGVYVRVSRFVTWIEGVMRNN

With `CC(C)=CCC/C(C)=C/CCC1(C)Oc2c(c(O)cc3c2CN(CCCC(C(=O)O)N2Cc4c(cc(O)c5c4OC(C)(CC/C=C(\C)CCC=C(C)C)C(O)C5)C2=O)C3=O)CC1O` (stereo not drawn) [orniplabin] the “plasma AST, orniplabin dose group as compared with the control group” value ([1]; 10 mg/kg into the abdominal cavity for 14 days after 6 weeks carbon tetrachloride, FIG. 1) was “significant (P<0.01) decrease”, the “plasma ALT, orniplabin dose group versus control group” value ([1]; 10 mg/kg into the abdominal cavity for 14 days after 6 weeks carbon tetrachloride, FIG. 2) was “no significant differences observed” and the “plasma ChE, orniplabin dose group as compared with the control group” value ([1]; 10 mg/kg into the abdominal cavity for 14 days after 6 weeks carbon tetrachloride, FIG. 3) was “significant (P<0.01) increase”. The “plasma ALT, orniplabin dose group as compared with the normal group” value ([1]; 10 mg/kg into the abdominal cavity for 14 days, FIG. 2) was “increases were not observed”, the “cholinesterase levels (protein synthesis ability of the liver)” value [1, 5] was “recovered to the same level as the normal level” and the “degree of impaired liver function (AST and ALT)” value [1, 5] was “recover to nearly the normal level”. The plasminogen activation (plasminogen [2]) was “promotes plasminogen activation”, the “binding of plasminogen to fibrin” value (plasminogen [3]) was “promotes binding of plasminogen to fibrin” and the “dissolution of pulmonary embolisms thrombus” value [4] was “promotes dissolution of pulmonary embolisms thrombus”.
